# According to ChEMBL document CHEMBL1140032, “Furoxan-, alkylnitrate-derivatives and related compounds as anti-trypanosomatid agents: mechanism of action studies” (2008):
# The source made the active and inactive calls. The rule behind the calls is not given here.
# Test system: Trypanosoma cruzi
# Experiment: Antitrypanosomal activity against Trypanosoma cruzi CL Brener assessed as lysis of trypomastigotes at 10 uM after 2 hrs relative to control
# Type: functional
# Conditions: not given
row,Structure (SMILES),Activity [%]
1,NC(=O)CS(=O)(=O)c1c(-c2ccccc2)no[n+]1[O-],0

# Test system: Trypanosoma cruzi
# Experiment: Antitrypanosomal activity against Trypanosoma cruzi CL Brener clone assessed as lysis of trypomastigotes at 10 uM after 3 hrs relative to control
# Type: functional
# Conditions: not given
row,Structure (SMILES),Activity [%]
1,NC(=O)CS(=O)(=O)c1c(-c2ccccc2)no[n+]1[O-],5

# Test system: Leishmania pifanoi
# Experiment: Antileishmanial activity against Leishmania pifanoi MHOM/VE/57/LV135 at 5.0 uM after 5 days assessed as parasite viability by MTT assay
# Type: functional
# Conditions: 120 h, read-out: GI
row,Structure (SMILES),inhibition of growth at 5 µM [%]
1,CCCCCCCCCCCCCCCCOP(=O)([O-])OCC[N+](C)(C)C [MILTEFOSINE],85.5

# Test system: Trypanosoma cruzi
# Experiment: Antitrypanosomal activity against Trypanosoma cruzi CL Brener assessed as lysis of trypomastigotes at 25 uM after 19 hrs relative to control
# Type: functional
# Conditions: not given
row,Structure (SMILES),Activity [%]
1,NC(=O)CS(=O)(=O)c1c(-c2ccccc2)no[n+]1[O-],100
2,CCOCCS(=O)(=O)c1c(-c2ccccc2)no[n+]1[O-],100
3,C=CS(=O)(=O)c1c(-c2ccccc2)no[n+]1[O-],100

# Test system: Trypanosoma cruzi
# Experiment: Antitrypanosomal activity against Trypanosoma cruzi CL Brener assessed as lysis of trypomastigotes at 50 uM after 2 hrs relative to control
# Type: functional
# Conditions: not given
row,Structure (SMILES),Activity [%]
1,CCOCCS(=O)(=O)c1c(-c2ccccc2)no[n+]1[O-],68
2,C=CS(=O)(=O)c1c(-c2ccccc2)no[n+]1[O-],62

# Test system: Trypanosoma cruzi
# Experiment: Antitrypanosomal activity against Trypanosoma cruzi CL Brener in Vero cells assessed as endocytic index at 2.5 uM
# Type: functional
# Conditions: not given
row,Structure (SMILES),Activity
1,NC(=O)CS(=O)(=O)c1c(-c2ccccc2)no[n+]1[O-],10.1

# Test system: Trypanosoma cruzi
# Experiment: Inhibition of Trypanosoma cruzi Y mitochondrial dehydrogenase activity by MTT assay relative to control
# Conditions: not given
row,Structure (SMILES),Activity
1,NC(=O)CS(=O)(=O)c1c(-c2ccccc2)no[n+]1[O-],Active
2,CCOCCS(=O)(=O)c1c(-c2ccccc2)no[n+]1[O-],Active
3,C=CS(=O)(=O)c1c(-c2ccccc2)no[n+]1[O-],Active

# Test system: Trypanosoma cruzi
# Experiment: Antitrypanosomal activity against Trypanosoma cruzi CL Brener in Vero cells assessed as number of amastigote infected
# Type: functional
# Conditions: not given
row,Structure (SMILES),Activity
1,NC(=O)CS(=O)(=O)c1c(-c2ccccc2)no[n+]1[O-],1.6

# Test system: Trypanosoma cruzi
# Experiment: Antitrypanosomal activity against Trypanosoma cruzi CL Brener clone assessed as lysis of trypomastigotes at 10 uM after 26 hrs relative to control
# Type: functional
# Conditions: not given
row,Structure (SMILES),Activity [%]
1,NC(=O)CS(=O)(=O)c1c(-c2ccccc2)no[n+]1[O-],100

# Test system: Trypanosoma cruzi
# Experiment: Antitrypanosomal activity against Trypanosoma cruzi CL Brener assessed as lysis of trypomastigotes at 25 uM after 2 hrs relative to control
# Type: functional
# Conditions: not given
row,Structure (SMILES),Activity [%]
1,C=CS(=O)(=O)c1c(-c2ccccc2)no[n+]1[O-],33

# Test system: Trypanosoma cruzi
# Experiment: Antitrypanosomal activity against Trypanosoma cruzi Y assessed as parasite viability after 5 days by MTT assay
# Type: functional
# Conditions: 120 h, read-out: ID50 (the source's name)
row,Structure (SMILES),IC50 [µM]
1,CCSCCS(=O)(=O)c1no[n+]([O-])c1-c1ccccc1,6
2,NC(=O)CS(=O)(=O)c1c(-c2ccccc2)no[n+]1[O-],6
3,COc1ccccc1NCCS(=O)(=O)c1no[n+]([O-])c1-c1ccccc1,26.2
4,CCOCCS(=O)(=O)c1no[n+]([O-])c1-c1ccccc1,> 50
5,O=S(=O)(c1ccccc1)c1c(-c2ccccc2)no[n+]1[O-],4.3
6,CCOCCS(=O)(=O)c1c(-c2ccccc2)no[n+]1[O-],3.4
7,O=S(=O)(c1ccccc1)c1no[n+]([O-])c1-c1ccccc1,> 50
8,NC(=O)CS(=O)(=O)c1no[n+]([O-])c1-c1ccccc1,48
9,C=CS(=O)(=O)c1c(-c2ccccc2)no[n+]1[O-],6.8
10,COc1ccccc1NCCS(=O)(=O)c1c(-c2ccccc2)no[n+]1[O-],9.2
11,C=CS(=O)(=O)c1no[n+]([O-])c1-c1ccccc1,11.1
12,CCSCCS(=O)(=O)c1c(-c2ccccc2)no[n+]1[O-],3.9

# Test system: Leishmania braziliensis
# Experiment: Antileishmanial activity against Leishmania braziliensis MHOM/BR/00/LTB300 assessed as parasite viability after 5 days by MTT assay
# Type: functional
# Conditions: 120 h, read-out: ID50 (the source's name)
row,Structure (SMILES),IC50 [µM]
1,CCSCCS(=O)(=O)c1no[n+]([O-])c1-c1ccccc1,> 50
2,CCCCCCCCCCCCCCCCOP(=O)([O-])OCC[N+](C)(C)C [MILTEFOSINE],9
3,NC(=O)CS(=O)(=O)c1c(-c2ccccc2)no[n+]1[O-],14.3
4,COc1ccccc1NCCS(=O)(=O)c1no[n+]([O-])c1-c1ccccc1,9.9
5,CCOCCS(=O)(=O)c1no[n+]([O-])c1-c1ccccc1,> 50
6,O=S(=O)(c1ccccc1)c1c(-c2ccccc2)no[n+]1[O-],1.6
7,CCOCCS(=O)(=O)c1c(-c2ccccc2)no[n+]1[O-],4.1
8,O=S(=O)(c1ccccc1)c1no[n+]([O-])c1-c1ccccc1,20.2
9,NC(=O)CS(=O)(=O)c1no[n+]([O-])c1-c1ccccc1,> 50
10,C=CS(=O)(=O)c1c(-c2ccccc2)no[n+]1[O-],10
11,COc1ccccc1NCCS(=O)(=O)c1c(-c2ccccc2)no[n+]1[O-],13.7
12,C=CS(=O)(=O)c1no[n+]([O-])c1-c1ccccc1,39.1
13,CCSCCS(=O)(=O)c1c(-c2ccccc2)no[n+]1[O-],4

# Test system: Trypanosoma cruzi
# Experiment: Antitrypanosomal activity against Trypanosoma cruzi CL Brener assessed as lysis of trypomastigotes at 50 uM after 19 hrs relative to control
# Type: functional
# Conditions: not given
row,Structure (SMILES),Activity [%]
1,NC(=O)CS(=O)(=O)c1c(-c2ccccc2)no[n+]1[O-],100
2,CCOCCS(=O)(=O)c1c(-c2ccccc2)no[n+]1[O-],100
3,C=CS(=O)(=O)c1c(-c2ccccc2)no[n+]1[O-],100

# Test system: Trypanosoma cruzi
# Experiment: Antitrypanosomal activity against Trypanosoma cruzi Tulahuen 2 assessed as inhibition of epimastigotes growth after 5 days by MTT assay relative to control
# Type: functional
# Conditions: Tulahuen 2, 120 h, read-out: ID50 (the source's name)
row,Structure (SMILES),IC50 [µM]
1,CCSCCS(=O)(=O)c1no[n+]([O-])c1-c1ccccc1,5
2,NC(=O)CS(=O)(=O)c1c(-c2ccccc2)no[n+]1[O-],10
3,COc1ccccc1NCCS(=O)(=O)c1no[n+]([O-])c1-c1ccccc1,8
4,CCOCCS(=O)(=O)c1no[n+]([O-])c1-c1ccccc1,17
5,O=S(=O)(c1ccccc1)c1c(-c2ccccc2)no[n+]1[O-],5
6,CCOCCS(=O)(=O)c1c(-c2ccccc2)no[n+]1[O-],10
7,O=S(=O)(c1ccccc1)c1no[n+]([O-])c1-c1ccccc1,7.5
8,NC(=O)CS(=O)(=O)c1no[n+]([O-])c1-c1ccccc1,25
9,C=CS(=O)(=O)c1c(-c2ccccc2)no[n+]1[O-],6.5
10,COc1ccccc1NCCS(=O)(=O)c1c(-c2ccccc2)no[n+]1[O-],7.5
11,C=CS(=O)(=O)c1no[n+]([O-])c1-c1ccccc1,5.5
12,CCSCCS(=O)(=O)c1c(-c2ccccc2)no[n+]1[O-],7.5

# Test system: Trypanosoma cruzi
# Experiment: Antitrypanosomal activity against Trypanosoma cruzi CL Brener in Vero cells assessed as infection
# Type: functional
# Conditions: not given
row,Structure (SMILES),Activity [%]
1,NC(=O)CS(=O)(=O)c1c(-c2ccccc2)no[n+]1[O-],6.3

# Test system: not listed separately
# Experiment: Inhibition of nitric oxide production by Griess assay
# Type: functional
# Parameters: concentration or dose not given beside the values
# Conditions: dose or concentration not given here
row,Structure (SMILES),inhibition [%]
1,CCSCCS(=O)(=O)c1no[n+]([O-])c1-c1ccccc1,< 1
2,COc1ccccc1NCCS(=O)(=O)c1no[n+]([O-])c1-c1ccccc1,< 1
3,CCOCCS(=O)(=O)c1no[n+]([O-])c1-c1ccccc1,< 1
4,O=S(=O)(c1ccccc1)c1c(-c2ccccc2)no[n+]1[O-],10.3
5,CCOCCS(=O)(=O)c1c(-c2ccccc2)no[n+]1[O-],10
6,O=S(=O)(c1ccccc1)c1no[n+]([O-])c1-c1ccccc1,< 1
7,COc1ccccc1NCCS(=O)(=O)c1c(-c2ccccc2)no[n+]1[O-],20.8
8,CCSCCS(=O)(=O)c1c(-c2ccccc2)no[n+]1[O-],10

# Test system: Leishmania pifanoi
# Experiment: Antileishmanial activity against Leishmania pifanoi MHOM/VE/57/LV135 assessed as parasite viability after 5 days by MTT assay
# Type: functional
# Conditions: 120 h, read-out: ID50 (the source's name)
row,Structure (SMILES),IC50 [µM]
1,CCSCCS(=O)(=O)c1no[n+]([O-])c1-c1ccccc1,> 50
2,NC(=O)CS(=O)(=O)c1c(-c2ccccc2)no[n+]1[O-],> 50
3,COc1ccccc1NCCS(=O)(=O)c1no[n+]([O-])c1-c1ccccc1,33.8
4,CCOCCS(=O)(=O)c1no[n+]([O-])c1-c1ccccc1,> 50
5,O=S(=O)(c1ccccc1)c1c(-c2ccccc2)no[n+]1[O-],3.8
6,CCOCCS(=O)(=O)c1c(-c2ccccc2)no[n+]1[O-],4.2
7,O=S(=O)(c1ccccc1)c1no[n+]([O-])c1-c1ccccc1,20.5
8,NC(=O)CS(=O)(=O)c1no[n+]([O-])c1-c1ccccc1,> 50
9,C=CS(=O)(=O)c1c(-c2ccccc2)no[n+]1[O-],26.7
10,COc1ccccc1NCCS(=O)(=O)c1c(-c2ccccc2)no[n+]1[O-],6.5
11,C=CS(=O)(=O)c1no[n+]([O-])c1-c1ccccc1,> 50
12,CCSCCS(=O)(=O)c1c(-c2ccccc2)no[n+]1[O-],4.6

# Test system: Trypanosoma cruzi
# Experiment: Antitrypanosomal activity against Trypanosoma cruzi CL Brener assessed as parasite viability after 5 days by MTT assay
# Type: functional
# Conditions: 120 h, read-out: ID50 (the source's name)
row,Structure (SMILES),IC50 [µM]
1,CCSCCS(=O)(=O)c1no[n+]([O-])c1-c1ccccc1,37.1
2,NC(=O)CS(=O)(=O)c1c(-c2ccccc2)no[n+]1[O-],3.7
3,COc1ccccc1NCCS(=O)(=O)c1no[n+]([O-])c1-c1ccccc1,7.2
4,CCOCCS(=O)(=O)c1no[n+]([O-])c1-c1ccccc1,> 50
5,O=S(=O)(c1ccccc1)c1c(-c2ccccc2)no[n+]1[O-],4.2
6,CCOCCS(=O)(=O)c1c(-c2ccccc2)no[n+]1[O-],1.5
7,O=S(=O)(c1ccccc1)c1no[n+]([O-])c1-c1ccccc1,9.1
8,NC(=O)CS(=O)(=O)c1no[n+]([O-])c1-c1ccccc1,> 50
9,C=CS(=O)(=O)c1c(-c2ccccc2)no[n+]1[O-],2.6
10,COc1ccccc1NCCS(=O)(=O)c1c(-c2ccccc2)no[n+]1[O-],5
11,C=CS(=O)(=O)c1no[n+]([O-])c1-c1ccccc1,8.2
12,CCSCCS(=O)(=O)c1c(-c2ccccc2)no[n+]1[O-],0.9
